In assay [1] the target is T1, human JAK1 (a.a. 837-1142) (Homo sapiens, UniProt P23458).
T1 construct: The catalytic domains of human JAK1 (a.a. 837-1142); His tag (N); made in house; host or cells: insect cells (baculovirus)
The experiment in a line: In vitro JAK kinase assay (HTRF, phosphorylation of biotinylated peptide), JAK1. The format is biochemical. The note with it: 1 mM ATP; Examples 12-91; read-out: JAK1 IC50 (nM) @ 1 mM ATP. In outline:
(§1)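 His-tagged catalytic domains expressed in baculovirus/insect cells; biotinylated peptide (500 nM) phosphorylation in 50 mM Tris pH 7.8, 100 mM NaCl, 5 mM DTT, 0.01% BSA, 1 h room temperature. ATP at Km (JAK1 90 μM, JAK2 30 μM) or 1 mM. EDTA stop, Eu-Py20/SA-APC HTRF read; IC50.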

For another assay, the target named is T2, Jak2 (a.a. 828-1132) (Homo sapiens, UniProt O60674).
T2 construct: Jak2 (a.a. 828-1132); His tag (N); made in house; host or cells: insect cells (baculovirus)
T2 sequence (O60674 828-1132): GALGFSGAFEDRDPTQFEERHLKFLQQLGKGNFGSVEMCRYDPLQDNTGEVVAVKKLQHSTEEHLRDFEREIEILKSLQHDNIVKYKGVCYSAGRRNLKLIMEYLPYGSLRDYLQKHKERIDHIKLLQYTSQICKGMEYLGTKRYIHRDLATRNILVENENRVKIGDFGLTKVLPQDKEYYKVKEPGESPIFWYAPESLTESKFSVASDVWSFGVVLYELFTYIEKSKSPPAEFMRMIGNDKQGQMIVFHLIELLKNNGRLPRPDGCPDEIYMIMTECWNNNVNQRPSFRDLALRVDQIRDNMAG
The assay can be described thus: In vitro JAK kinase assay (HTRF, phosphorylation of biotinylated peptide), JAK2. The format is biochemical. The note with it: 1 mM ATP; Examples 12-91; read-out: JAK2 IC50 (nM) @ 1 mM ATP. The essentials:
as §1

Structures are written as SMILES. Structures can show the parent of a compound that is named as a salt.

T1 sequence (P23458 849-1154): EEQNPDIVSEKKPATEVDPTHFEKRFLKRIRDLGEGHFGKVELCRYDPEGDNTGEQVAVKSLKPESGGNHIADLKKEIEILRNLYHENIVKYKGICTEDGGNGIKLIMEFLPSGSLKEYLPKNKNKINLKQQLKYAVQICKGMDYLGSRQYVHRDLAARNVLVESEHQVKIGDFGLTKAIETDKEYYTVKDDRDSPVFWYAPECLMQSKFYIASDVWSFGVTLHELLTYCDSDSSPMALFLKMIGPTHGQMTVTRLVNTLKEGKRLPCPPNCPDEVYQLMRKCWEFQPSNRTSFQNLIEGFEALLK

As to `N#CCC(CN1CCN(S(=O)(=O)c2cccs2)CC1)n1cc(-c2ncnc3[nH]ccc23)cn1` (stereo not shown) [Example 67, 3-(4-(7H-pyrrolo[2,3-d]pyrimidin-4-yl)-1H-pyrazol-1-yl)-4-(4-(thiophen-2-ylsulfonyl)piperazin-1-yl)butanenitrile], the IC50 (in assay [1]; at Jak2 (a.a. 828-1132)) was < 10 nM throughout.

As to `N#CCC(CN1CCN(S(=O)(=O)c2ccc(Cl)s2)CC1)n1cc(-c2ncnc3[nH]ccc23)cn1` (stereo not shown) [Example 68, 3-(4-(7H-pyrrolo[2,3-d]pyrimidin-4-yl)-1H-pyrazol-1-yl)-4-(4-(5-chlorothiophen-2-ylsulfonyl)piperazin-1-yl)butanenitrile], the IC50 (in assay [1]; at Jak2 (a.a. 828-1132)) was < 10 nM in each case.

On to `N#CCC(CN1CCN(C(=O)Nc2c(F)cccc2F)CC1)n1cc(-c2ncnc3[nH]ccc23)cn1` (stereo not shown) [Example 69, 4-(2-(4-(7H-pyrrolo[2,3-d]pyrimidin-4-yl)-1H-pyrazol-1-yl)-3-cyanopropyl)-N-(2,6-difluorophenyl)piperazine-1-carboxamide], for which the IC50 in assay [1] was < 10 nM; on Jak2 (a.a. 828-1132) it was 10 to 50 nM.

With `N#CCC(CN1CCN(C(=O)Nc2c(Cl)cccc2Cl)CC1)n1cc(-c2ncnc3[nH]ccc23)cn1` (stereo not shown) [Example 70, 4-(2-(4-(7H-pyrrolo[2,3-d]pyrimidin-4-yl)-1H-pyrazol-1-yl)-3-cyanopropyl)-N-(2,6-dichlorophenyl)piperazine-1-carboxamide], the IC50 in assay [1] was 10 to 50 nM; at Jak2 (a.a. 828-1132) it was 50 to 100 nM.

With `Cc1cccc(Cl)c1NC(=O)N1CCN(CC(CC#N)n2cc(-c3ncnc4[nH]ccc34)cn2)CC1` (stereo not shown) [Example 71, 4-(2-(4-(7H-pyrrolo[2,3-d]pyrimidin-4-yl)-1H-pyrazol-1-yl)-3-cyanopropyl)-N-(2-chloro-6-methylphenyl)piperazine-1-carboxamide], the IC50 (in assay [1]; at Jak2 (a.a. 828-1132)) was 10 to 50 nM in each case.

With `N#CCC(CN1CCN(C(=O)Nc2ccc(F)cc2F)CC1)n1cc(-c2ncnc3[nH]ccc23)cn1` (stereo not shown) [Example 72, 4-(2-(4-(7H-pyrrolo[2,3-d]pyrimidin-4-yl)-1H-pyrazol-1-yl)-3-cyanopropyl)-N-(2,4-difluorophenyl)piperazine-1-carboxamide], the IC50 in assay [1] is 10 to 50 nM; on Jak2 (a.a. 828-1132) it was 50 to 100 nM.

As to `N#CCC(CN1CCN(C(=O)Nc2cccc(C(F)(F)F)c2F)CC1)n1cc(-c2ncnc3[nH]ccc23)cn1` (stereo not shown) [Example 73, 4-(2-(4-(7H-pyrrolo[2,3-d]pyrimidin-4-yl)-1H-pyrazol-1-yl)-3-cyanopropyl)-N-(2-fluoro-3-(trifluoromethyl)phenyl)piperazine-1-carboxamide], the IC50 in assay [1] was 10 to 50 nM; at Jak2 (a.a. 828-1132), > 100 nM.

Turning to `N#CCC(CN1CCN(C(=O)Nc2ccccc2OC(F)F)CC1)n1cc(-c2ncnc3[nH]ccc23)cn1` (stereo not shown) [Example 74, 4-(2-(4-(7H-pyrrolo[2,3-d]pyrimidin-4-yl)-1H-pyrazol-1-yl)-3-cyanopropyl)-N-(2-(difluoromethoxy)phenyl)piperazine-1-carboxamide], the IC50 lay in the range of 10 to 50 nM in assay [1] and 50 to 100 nM on Jak2 (a.a. 828-1132).

With `N#CCC(CN1CCN(C(=O)Nc2ccccc2OC(F)(F)F)CC1)n1cc(-c2ncnc3[nH]ccc23)cn1` (stereo not shown) [Example 75], the IC50 in assay [1] was 10 to 50 nM; at Jak2 (a.a. 828-1132), 50 to 100 nM.

Take `N#CCC(CN1CCN(C(=O)Nc2ccccc2C(F)(F)F)CC1)n1cc(-c2ncnc3[nH]ccc23)cn1` (stereo not shown) [Example 76, 4-(2-(4-(7H-pyrrolo[2,3-d]pyrimidin-4-yl)-1H-pyrazol-1-yl)-3-cyanopropyl)-N-(2-(trifluoromethyl)phenyl)piperazine-1-carboxamide]: the IC50 in assay [1] was 10 to 50 nM; on Jak2 (a.a. 828-1132), > 100 nM.

Consider `N#CCC(CN1CCN(C(=O)c2ccc(C(F)(F)F)cc2F)CC1)n1ccc(-c2ncnc3[nH]ccc23)c1` (stereo not shown) [Example 78, 3-(3-(7H-pyrrolo[2,3-d]pyrimidin-4-yl)-1H-pyrrol-1-yl)-4-(4-(2-fluoro-4-(trifluoromethyl)benzoyl)piperazin-1-yl)butanenitrile], for which the IC50 in assay [1] was < 10 nM; at Jak2 (a.a. 828-1132), 10 to 50 nM.

Turning to `N#CCC(CN1CCN(C(=O)c2c(F)cc(C#N)cc2F)CC1)n1ccc(-c2ncnc3[nH]ccc23)c1` (stereo not shown) [Example 79, 4-(4-(2-(3-(7H-pyrrolo[2,3-d]pyrimidin-4-yl)-1H-pyrrol-1-yl)-3-cyanopropyl)piperazine-1-carbonyl)-3,5-difluorobenzonitrile trifluoroacetate salt], the IC50 in assay [1] was < 10 nM; at Jak2 (a.a. 828-1132), 50 to 100 nM.

For `N#CCC(CN1CCN(C(=O)c2ncc(F)cc2F)CC1)n1ccc(-c2ncnc3[nH]ccc23)c1` (stereo not shown) [Example 80, 3-(3-(7H-pyrrolo[2,3-d]pyrimidin-4-yl)-1H-pyrrol-1-yl)-4-(4-(3,5-difluoropicolinoyl)piperazin-1-yl)butanenitrile], the IC50 is < 10 nM in assay [1] and 10 to 50 nM on Jak2 (a.a. 828-1132).

As to `N#CCC(CN1CCN(C(=O)c2cc(F)cc(F)c2)CC1)n1ccc(-c2ncnc3[nH]ccc23)c1` (stereo not shown) [Example 81, 3-(3-(7H-pyrrolo[2,3-d]pyrimidin-4-yl)-1H-pyrrol-1-yl)-4-(4-(3,5-difluorobenzoyl)piperazin-1-yl)butanenitrile], the 50% inhibitory concentration (IC50) in assay [1] is < 10 nM; on Jak2 (a.a. 828-1132), 50 to 100 nM.

With `COc1ccc(C(=O)N2CCN(CC(CC#N)n3ccc(-c4ncnc5[nH]ccc45)c3)CC2)cc1F` (stereo not shown) [Example 82, 3-(3-(7H-pyrrolo[2,3-d]pyrimidin-4-yl)-1H-pyrrol-1-yl)-4-(4-(3-fluoro-4-methoxybenzoyl)piperazin-1-yl)butanenitrile], the figures for the IC50 (in assay [1]; at Jak2 (a.a. 828-1132)) were < 10 nM and 10 to 50 nM, respectively.

As to `N#CCC(CN1CCN(C(=O)c2ccc(F)cn2)CC1)n1ccc(-c2ncnc3[nH]ccc23)c1` (stereo not shown) [Example 83, 3-(3-(7H-pyrrolo[2,3-d]pyrimidin-4-yl)-1H-pyrrol-1-yl)-4-(4-(5-fluoropicolinoyl)piperazin-1-yl)butanenitrile], the IC50 in assay [1] is < 10 nM; at Jak2 (a.a. 828-1132) it was 10 to 50 nM.

As for `N#CCC(CN1CCN(C(=O)c2ncc(Cl)cc2F)CC1)n1ccc(-c2ncnc3[nH]ccc23)c1` (stereo not shown) [Example 84, 3-(3-(7H-pyrrolo[2,3-d]pyrimidin-4-yl)-1H-pyrrol-1-yl)-4-(4-(5-chloro-3-fluoropicolinoyl)piperazin-1-yl)butanenitrile], the IC50 (in assay [1]; on Jak2 (a.a. 828-1132)) was 10 to 50 nM in each case.

In the case of `N#CCC(CN1CCN(C(=O)c2ccc(F)c(OC(F)(F)F)c2)CC1)n1ccc(-c2ncnc3[nH]ccc23)c1` (stereo not shown) [Example 85, 3-(3-(7H-pyrrolo[2,3-d]pyrimidin-4-yl)-1H-pyrrol-1-yl)-4-(4-(4-fluoro-3-(trifluoromethoxy)benzoyl)piperazin-1-yl)butanenitrile], the IC50 in assay [1] was 10 to 50 nM; on Jak2 (a.a. 828-1132), > 100 nM.

As for `N#CCC(CN1CCN(C(=O)c2cc(F)cc(C#N)c2)CC1)n1ccc(-c2ncnc3[nH]ccc23)c1` (stereo not shown) [Example 86, 3-(4-(2-(3-(7H-pyrrolo[2,3-d]pyrimidin-4-yl)-1H-pyrrol-1-yl)-3-cyanopropyl)piperazine-1-carbonyl)-5-fluorobenzonitrile trifluoroacetate salt], the results for the IC50 (in assay [1]; on Jak2 (a.a. 828-1132)) were 10 to 50 nM and > 100 nM, respectively.

Consider `N#CCC(CN1CCN(C(=O)c2ncc(C#N)cc2F)CC1)n1ccc(-c2ncnc3[nH]ccc23)c1` (stereo not shown) [Example 87, 6-(4-(2-(3-(7H-pyrrolo[2,3-d]pyrimidin-4-yl)-1H-pyrrol-1-yl)-3-cyanopropyl)piperazine-1-carbonyl)-5-fluoronicotinonitrile], for which the values for the IC50 (in assay [1]; on Jak2 (a.a. 828-1132)) were 10 to 50 nM and > 100 nM, respectively.

The values are drawn from US9249145B2, “Heterocyclic derivatives of pyrazol-4-yl-pyrrolo[2,3-d]pyrimidines as janus kinase inhibitors” (Incyte Holdings Corporation, priority 2009, dated 2016).
